Data on twelve compounds can be found in US20260297081A1, “COMPOUNDS AND METHODS OF TREATING CANCERS” (Cullgen Inc., priority 2023, published 2026).

A word on the inhibition: it is the drop in the measured response relative to a control, in per cent. Low readings indicate a response near the control, high ones a response far below the control.

In this test the target is CDK4 (Homo sapiens, UniProt P11802+Q16531). As to the kind of experiment: CDK4 percentage degradation in Calu-1 cells (Table 6). Type of test: cell-based. Also noted: Cells that express cyclin D1-3 and CDK4/6 proteins were treated with heterobifunctional compounds; endogenous in cells; host or cells: Calu-1. The note with it: 16 hours; for inhibition at 0.04 µM: 40 nM; for inhibition at 0.2 µM: 200 nM. The method in brief:
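Calu-1 cells exposed to heterobifunctional compounds at 40 nM or 200 nM for 16 h. Cyclin D1 and CDK4 levels measured by Western blot of RIPA lysates (BCA-normalised loading), bands quantified by densitometry and expressed as percentage degradation.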

CDK4, sequence (P11802 2-303 limits assumed): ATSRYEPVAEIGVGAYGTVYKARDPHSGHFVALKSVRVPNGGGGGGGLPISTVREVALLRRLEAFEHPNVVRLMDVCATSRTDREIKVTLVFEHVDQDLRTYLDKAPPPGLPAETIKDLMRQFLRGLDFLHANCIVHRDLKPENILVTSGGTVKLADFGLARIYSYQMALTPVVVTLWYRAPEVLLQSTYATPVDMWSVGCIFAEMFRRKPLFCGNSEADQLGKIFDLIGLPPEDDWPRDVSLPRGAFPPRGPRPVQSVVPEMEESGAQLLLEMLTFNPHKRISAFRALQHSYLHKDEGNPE
CDK4, sequence (P24385 whole entry partner): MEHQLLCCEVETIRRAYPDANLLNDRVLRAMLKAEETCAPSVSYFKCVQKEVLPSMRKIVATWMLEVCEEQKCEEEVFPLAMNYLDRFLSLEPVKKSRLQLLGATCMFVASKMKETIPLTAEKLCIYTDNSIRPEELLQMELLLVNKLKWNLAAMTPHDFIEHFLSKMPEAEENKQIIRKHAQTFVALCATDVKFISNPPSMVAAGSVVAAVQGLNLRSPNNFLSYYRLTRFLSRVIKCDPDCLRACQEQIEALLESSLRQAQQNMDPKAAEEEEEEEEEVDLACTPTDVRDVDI
CDK4, sequence (Q16531 2-1140 limits assumed): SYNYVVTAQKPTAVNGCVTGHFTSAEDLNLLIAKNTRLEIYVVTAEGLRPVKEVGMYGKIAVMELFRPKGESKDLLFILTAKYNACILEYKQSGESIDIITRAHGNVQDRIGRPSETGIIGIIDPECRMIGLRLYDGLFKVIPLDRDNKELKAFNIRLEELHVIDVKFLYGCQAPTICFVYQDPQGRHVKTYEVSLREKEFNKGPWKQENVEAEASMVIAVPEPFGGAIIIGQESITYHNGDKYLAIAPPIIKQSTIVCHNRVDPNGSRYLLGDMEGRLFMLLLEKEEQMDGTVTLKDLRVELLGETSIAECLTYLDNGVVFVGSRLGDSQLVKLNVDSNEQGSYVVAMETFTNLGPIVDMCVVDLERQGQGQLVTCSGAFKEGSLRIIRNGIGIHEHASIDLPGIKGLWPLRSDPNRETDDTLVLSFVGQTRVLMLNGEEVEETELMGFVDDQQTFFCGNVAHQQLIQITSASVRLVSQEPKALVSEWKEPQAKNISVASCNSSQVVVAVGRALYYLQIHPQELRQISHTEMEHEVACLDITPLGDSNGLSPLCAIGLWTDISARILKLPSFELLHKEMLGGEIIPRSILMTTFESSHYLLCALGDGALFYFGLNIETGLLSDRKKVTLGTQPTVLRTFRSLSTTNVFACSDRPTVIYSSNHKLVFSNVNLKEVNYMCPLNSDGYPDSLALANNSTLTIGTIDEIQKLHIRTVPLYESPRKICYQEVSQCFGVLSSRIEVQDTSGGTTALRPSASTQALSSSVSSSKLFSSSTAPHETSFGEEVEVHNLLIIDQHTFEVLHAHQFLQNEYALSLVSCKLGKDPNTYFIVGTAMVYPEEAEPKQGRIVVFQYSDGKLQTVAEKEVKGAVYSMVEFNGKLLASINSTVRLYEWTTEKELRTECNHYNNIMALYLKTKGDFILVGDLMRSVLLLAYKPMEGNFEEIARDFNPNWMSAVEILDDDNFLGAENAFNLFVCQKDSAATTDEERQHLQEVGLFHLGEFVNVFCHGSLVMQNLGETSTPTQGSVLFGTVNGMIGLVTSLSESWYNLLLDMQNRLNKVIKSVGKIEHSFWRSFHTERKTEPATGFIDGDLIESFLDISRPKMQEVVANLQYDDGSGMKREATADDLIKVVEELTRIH

For the compound `CNc1ccc(C(=O)Nc2ccc(F)c(C3CC3)n2)c(NC2CC3(CC(NC(=O)CN4CCN(c5ccc(Nc6ncc7c(C)c(C(C)=O)c(=O)n(C8CCCC8)c7n6)nc5)CC4)C3)C2)n1` (centres unmarked) [CPD-128, 2-((6-(2-(4-(6-((6-Acetyl-8-cyclopentyl-5-methyl-7-oxo-7,8-dihydropyrido[2,3-d]pyrimidin-2-yl)amino)pyridin-3-yl)piperazin-1-yl)acetamido)spiro[3.3]heptan-2-yl)amino)-N-(6-cyclopropyl-5-fluoropyridin-2-yl)-6-(methylamino)nicotinamide], the inhibition at 0.04 µM lay in the range of 50 to 80% and the inhibition at 0.2 µM lay within 50 to 80%.

In turn, `CNc1ccc(C(=O)Nc2ccc(N(C)C)nn2)c(NC2CCC(NC(=O)CN3CCN(c4ccc(Nc5ncc6c(C)c(C(C)=O)c(=O)n(C7CCCC7)c6n5)nc4)CC3)CC2)n1` (centres unmarked) [CPD-130, 2-((4-(2-(4-(6-((6-Acetyl-8-cyclopentyl-5-methyl-7-oxo-7,8-dihydropyrido[2,3-d]pyrimidin-2-yl)amino)pyridin-3-yl)piperazin-1-yl)acetamido)cyclohexyl)amino)-N-(6-(dimethylamino)pyridazin-3-yl)-6-(methylamino)nicotinamide] came in with an inhibition at 0.04 µM of 50 to 80% and an inhibition at 0.2 µM of 50 to 80%.

In turn, `CNc1ccc(C(=O)Nc2cc(C)n(C)n2)c(NC[C@H]2CC[C@H](NC(=O)CN3CCN(c4ccc(Nc5ncc6c(C)c(C(C)=O)c(=O)n(C7CCCC7)c6n5)nc4)CC3)CC2)n1` [CPD-131, 2-(((trans-4-(2-(4-(6-((6-Acetyl-8-cyclopentyl-5-methyl-7-oxo-7,8-dihydropyrido[2,3-d]pyrimidin-2-yl)amino)pyridin-3-yl)piperazin-1-yl)acetamido)cyclohexyl)methyl)amino)-N-(1,5-dimethyl-1H-pyrazol-3-yl)-6-(methylamino)nicotinamide] had an inhibition at 0.04 µM below 30% and an inhibition at 0.2 µM of 50 to 80%.

Take `CNc1ccc(C(=O)Nc2ccc(C#N)c(C3CC3)n2)c(NC2CC3(CC(NC(=O)CN4CCN(c5ccc(Nc6ncc7c(C)c(C(C)=O)c(=O)n(C8CCCC8)c7n6)nc5)CC4)C3)C2)n1` (centres unmarked) [CPD-132, 2-((6-(2-(4-(6-((6-Acetyl-8-cyclopentyl-5-methyl-7-oxo-7,8-dihydropyrido[2,3-d]pyrimidin-2-yl)amino)pyridin-3-yl)piperazin-1-yl)acetamido)spiro[3.3]heptan-2-yl)amino)-N-(5-cyano-6-cyclopropylpyridin-2-yl)-6-(methylamino)nicotinamide]: the inhibition at 0.04 µM is below 30% and the inhibition at 0.2 µM is 50 to 80%.

`CNc1ccc(C(=O)Nc2ccc(N(C)C)nn2)c(NC2CC3(C2)CN(C(=O)N2CCN(c4ccc(Nc5ncc6c(C)c(C(C)=O)c(=O)n(C7CCCC7)c6n5)nc4)CC2)C3)n1` [CPD-133, 2-((2-(4-(6-((6-Acetyl-8-cyclopentyl-5-methyl-7-oxo-7,8-dihydropyrido[2,3-d]pyrimidin-2-yl)amino)pyridin-3-yl)piperazine-1-carbonyl)-2-azaspiro[3.3]heptan-6-yl)amino)-N-(6-(dimethylamino)pyridazin-3-yl)-6-(methylamino)nicotinamide] came in with an inhibition at 0.04 µM of 30 to 50% and an inhibition at 0.2 µM of 50 to 80%.

Compound `CNc1ccc(C(=O)Nc2ccc(N(C)C)nn2)c(NC2CC3(CC(NC(=O)N4CCN(c5ccc(Nc6ncc7c(C)c(C(C)=O)c(=O)n(C8CCCC8)c7n6)nc5)CC4)C3)C2)n1` (centres unmarked) [CPD-134, 4-(6-((6-Acetyl-8-cyclopentyl-5-methyl-7-oxo-7,8-dihydropyrido[2,3-d]pyrimidin-2-yl)amino)pyridin-3-yl)-N-(6-((3-((6-(dimethylamino)pyridazin-3-yl)carbamoyl)-6-(methylamino)pyridin-2-yl)amino)spiro[3.3]heptan-2-yl)piperazine-1-carboxamide] had an inhibition at 0.04 µM below 30% and an inhibition at 0.2 µM of 30 to 50%.

Take `CNc1ccc(C(=O)Nc2ccccn2)c(NC2CC3(CC(NC(=O)CN4CCN(c5ccc(Nc6ncc7c(C)c(C(C)=O)c(=O)n(C8CCCC8)c7n6)nc5)CC4)C3)C2)n1` (centres unmarked) [CPD-137, 2-((6-(2-(4-(6-((6-Acetyl-8-cyclopentyl-5-methyl-7-oxo-7,8-dihydropyrido[2,3-d]pyrimidin-2-yl)amino)pyridin-3-yl)piperazin-1-yl)acetamido)spiro[3.3]heptan-2-yl)amino)-6-(methylamino)-N-(pyridin-2-yl)nicotinamide]: the inhibition at 0.04 µM is 30 to 50% and the inhibition at 0.2 µM was 30 to 50%.

`CC(=O)c1c(C)c2cnc(Nc3ccc(N4CCN(CC(=O)NC5CC6(C5)CC(Nc5nc(C7CC7)ccc5C(=O)Nc5cccc(C7CC7)n5)C6)CC4)cn3)nc2n(C2CCCC2)c1=O` (centres unmarked) [CPD-138, 2-((6-(2-(4-(6-((6-Acetyl-8-cyclopentyl-5-methyl-7-oxo-7,8-dihydropyrido[2,3-d]pyrimidin-2-yl)amino)pyridin-3-yl)piperazin-1-yl)acetamido)spiro[3.3]heptan-2-yl)amino)-6-cyclopropyl-N-(6-cyclopropylpyridin-2-yl)nicotinamide] returned an inhibition at 0.04 µM below 30% and an inhibition at 0.2 µM of 30 to 50%.

Turning to `CNc1ccc(C(=O)Nc2ccc(N(C)C)nn2)c(NC2CC3(C2)CC(C(=O)N2CCN(c4ccc(Nc5ncc6c(C)c(C(C)=O)c(=O)n(C7CCCC7)c6n5)nc4)CC2)C3)n1` (centres unmarked) [CPD-140, 2-((6-(4-(6-((6-Acetyl-8-cyclopentyl-5-methyl-7-oxo-7,8-dihydropyrido[2,3-d]pyrimidin-2-yl)amino)pyridin-3-yl)piperazine-1-carbonyl)spiro[3.3]heptan-2-yl)amino)-N-(6-(dimethylamino)pyridazin-3-yl)-6-(methylamino)nicotinamide], the inhibition at 0.04 µM is below 30% and the inhibition at 0.2 µM lay within 50 to 80%.

The compound `CC(=O)c1c(C)c2cnc(Nc3ccc(N4CCN(CC(=O)NC5CC6(C5)CC(Nc5nc(C#N)ccc5C(=O)Nc5cccc(C7CC7)n5)C6)CC4)cn3)nc2n(C2CCCC2)c1=O` (centres unmarked) [CPD-141, 2-((6-(2-(4-(6-((6-Acetyl-8-cyclopentyl-5-methyl-7-oxo-7,8-dihydropyrido[2,3-d]pyrimidin-2-yl)amino)pyridin-3-yl)piperazin-1-yl)acetamido)spiro[3.3]heptan-2-yl)amino)-6-cyano-N-(6-cyclopropylpyridin-2-yl)nicotinamide] displayed an inhibition at 0.04 µM below 30% and an inhibition at 0.2 µM below 30%.

In the case of `CC(=O)c1c(C)c2cnc(Nc3ccc(N4CCN(CC(=O)NCCCCCCCNc5nc(-c6ccc(C#N)nc6)ccc5C(=O)Nc5nc(C)c(C)s5)CC4)cn3)nc2n(C2CCCC2)c1=O` [CPD-142], the inhibition at 0.04 µM is below 30%.

`CNc1ccc(C(=O)Nc2ccc(N(C)C)nn2)c(NCC2CCN(C(=O)CN3CCN(c4ccc(Nc5ncc6c(C)c(C(C)=O)c(=O)n(C7CCCC7)c6n5)nc4)CC3)CC2)n1` [CPD-145, 2-(((1-(2-(4-(6-((6-acetyl-8-cyclopentyl-5-methyl-7-oxo-7,8-dihydropyrido[2,3-d]pyrimidin-2-yl)amino)pyridin-3-yl)piperazin-1-yl)acetyl)piperidin-4-yl)methyl)amino)-N-(6-(dimethylamino)pyridazin-3-yl)-6-(methylamino)nicotinamide] registered an inhibition at 0.04 µM below 30% and an inhibition at 0.2 µM of 50 to 80%.
